Assays:
[1] = DVS analysis (percentage change in mass as function of relative humidity change); assay type: physicochemical; details: for sorption and desorption of water (reversibility): methanesulfonate
Description: DVS analysis, shown in FIG. 11, reports the percentage change in mass as of the relative humidity change.
The DVS analysis, shown in FIG. 22, reports the percentage change in mass as function of the relative humidity change.

[2] = XRPD of the sample recovered at the end of DVS analysis; assay type: physicochemical; details: methanesulfonate
Protocol: The X-ray powder diffractogram (XRPD) has been obtained using the instrument X′Pert PRO PANalytical with single scan, using Kα1 radiation. The diffractogram is measured in reflection mode in the range 3-40° 2θ.

COc1cc2nccc(Oc3ccc(NC(=O)NC4CC4)c(Cl)c3)c2cc1C(N)=O [ACA-1 HT DRY, 4-[3-Chloro-4-(N′-cyclopropylureido)phenoxy]-7-methoxyquinoline-6-carboxamide methanesulfonate]
sorption and desorption of water (reversibility) ([1]; DVS analysis): not very reversible | diffractogram / crystal structure after DVS [2]: quite amorphous but its crystal structure did not change

COc1cc2nccc(Oc3ccc(NC(=O)NC4CC4)c(Cl)c3)c2cc1C(N)=O [DMSO-2, 4-[3-Chloro-4-(N′-cyclopropylureido)phenoxy]-7-methoxyquinoline-6-carboxamide methanesulfonate]
weight loss of the sample between the start and the end of analysis ([1]; DVS analysis, compatible with the loss of 1 mol of DMSO): 12.34% | sorption and desorption of water (reversibility) ([1]; DVS analysis): not reversible

COc1cc2nccc(Oc3ccc(NC(=O)NC4CC4)c(Cl)c3)c2cc1C(N)=O [H2O-1, 4-[3-Chloro-4-(N′-cyclopropylureido)phenoxy]-7-methoxyquinoline-6-carboxamide methanesulfonate]
sorption and desorption of water (reversibility) ([1]; DVS analysis): reversible | mass increased percentage ([1]; DVS, between 40% and 80% RH of the absorption cycle): 10.9% | hygroscopicity classification ([1]; from DVS mass increase between 40% and 80% RH): hygroscopic | diffractogram / crystal structure after DVS [2]: did not show any important modification

— patent US10836727B2, “Crystal forms of lenvatinib” (Indena S.P.A., priority 2016, dated 2020)
